Consider 1 molecule from paper PMC6934184, “Selective DNA-PKcs inhibition extends the therapeutic index of localized radiotherapy and chemotherapy” (The Journal of Clinical Investigation, 2019).

This test addresses T1, LIMK2 (Homo sapiens, UniProt P53671).
T1 construct: purchased Thermo Fisher Scientific (Life Technologies) SelectScreen
The test can be described thus: SelectScreen LanthaScreen. In kind it is binding. Conditions: read-out: % displacement. Summed up:
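SelectScreen broad panel; activity (Z'LYTE, Adapta) plus binding formats. ATP: Km app for CSF1R Z'LYTE; 10 for CAMK1 Adapta. Readout = % per kinase.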

T1 sequence (P53671 whole entry): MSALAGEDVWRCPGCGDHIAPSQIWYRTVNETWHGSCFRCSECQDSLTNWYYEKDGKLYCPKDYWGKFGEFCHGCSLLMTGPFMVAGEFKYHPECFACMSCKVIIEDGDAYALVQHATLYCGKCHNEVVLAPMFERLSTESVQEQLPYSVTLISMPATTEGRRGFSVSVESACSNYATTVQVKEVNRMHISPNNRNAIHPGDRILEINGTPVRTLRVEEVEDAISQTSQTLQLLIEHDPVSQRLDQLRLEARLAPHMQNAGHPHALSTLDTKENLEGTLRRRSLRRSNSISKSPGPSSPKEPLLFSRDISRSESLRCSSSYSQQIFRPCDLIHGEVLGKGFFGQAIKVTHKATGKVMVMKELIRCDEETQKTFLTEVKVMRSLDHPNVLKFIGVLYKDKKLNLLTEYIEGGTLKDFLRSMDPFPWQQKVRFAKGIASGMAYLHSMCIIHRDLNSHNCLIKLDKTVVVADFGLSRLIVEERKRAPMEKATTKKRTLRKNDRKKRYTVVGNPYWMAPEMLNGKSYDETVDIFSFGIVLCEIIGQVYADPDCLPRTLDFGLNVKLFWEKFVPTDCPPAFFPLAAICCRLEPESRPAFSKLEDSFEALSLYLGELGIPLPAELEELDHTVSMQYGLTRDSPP

Consider `CN(C(=O)CN1CCOCC1)c1ccc2sc3c(-c4cccc5c(=O)cc(N6CC7CCC(C6)O7)oc45)cccc3c2c1` [NU5455], for which the inhibition at 1 µM was 1.4%.
